Measurements reported in US11872216B2, “Pharmaceutical formulation comprising cineole and amoxicillin” (priority 2016, dated 2024).

Experiments:
Assay in all cases: Microplate microdilution growth inhibition (PIC, MIC, FIC-index)
Type in all cases: cell-based
[1] = tested on: BSBL Klebsiella pneumoniae H1893
Protocol: (§1) The six strains tested in this study are purified clinical isolates identified in the bacteriology laboratory of the Hassan II university teaching hospital center (CHU, Fes, Morocco). Three of the six bacterial strains tested are strains of BSBL Escherichia coli (P956, P933 and P7847) and the other three bacterial strains tested are strains of BSBL Klebsiella pneumoniae (H1878, H2001 and H1893).
(§2) For each test performed, precultures of the bacterial strains (frozen beforehand at −20° C.) for 24 h at 37° C. were prepared. From these precultures, bacterial inocula containing 2×10^7 CFU (colony-forming units)/ml were prepared, adjusting the optical density to 540 nm.
(§3) Amoxicillin (AMX) and cineole were supplied by Sigma Aldrich (France). A stock solution of AMX (400 μg/ml) was prepared after dissolving 40 mg of antibiotic in 100 ml of sterile distilled water. From this stock solution, serial dilutions were performed. The cineole concentrations used were prepared by emulsifying pure cineole in 0.2% (v/v) of agar-agar according to the method described by Remmal A et al. (J. Essent. Oil. Res [Book], 1993, 5: pages 1179-1184).
(§4) The partial inhibitory concentrations (PIC) are the concentrations of antibacterial agents which inhibit the growth of a given percentage (90%, 75%, 50%, 40% . . . ) of the bacterial population studied. The PICs of AMX and cineole with respect to the six bacterial strains used were determined via a microplate microdilution technique based on the monitoring of the bacterial growth by measuring the optical density (Casey J. T. et al., J. Microbiol. Meth [Book], 2004, 58: pages 327-334; Patton T et al., J. Microbiol. Meth [Book], 2006, 64: pages 84-95).
(§5) 96-well U-shaped sterile microplates with a capacity of 200 μl were used. For each microplate, two control rows were prepared: • A row containing 200 μl of the MH liquid medium (sterility control and negative control). • A row containing 150 μl of the MH liquid medium and 50 μl of the bacterial inoculum at 2×10^7 CFU/ml (positive control).
(§6) For AMX and cineole, two rows were prepared containing 100 μl of MH liquid medium, 50 μl of the bacteria inoculum at 2×10^7 CFU/ml and 50 μl of decreasing concentrations of antimicrobial agents. The AMX concentrations used are: 50-25-12.5-6.25-3.1-1.6-0.8-0.4-0.20-0.10-0.05-0.025 μg/ml. The cineole concentrations used are: 100-50-25-12.5-6.25-3.1-1.6-0.8-0.4-0.20-0.10-0.05 μl/ml. The optical densities (OD) were determined at 540 nm using a microplate spectrophotometer (Versamax, Molecular Devices, USA). The OD was measured at time t=0 and after 22 hours of incubation at 30° C. The percentage of inhibition of the antimicrobial agents with respect to each of the six strains was calculated according to Casey J. T. et al. (J. Microbiol. Meth. [Book], 2004, 58: pages 327-334) according to the following formula:
(§7) With ODT0=OD of the test well at time t=0, ODT22=OD of the test well after 22 h of incubation, ODC0=OD of the positive control well at time t=0, ODC22=OD of the positive control well after 22 h of incubation.
(§8) After having determined the PICs of AMX and cineole alone, the antibacterial power of the combination of AMX and cineole was evaluated. The same technique of microplate microdilution was used. The AMX-cineole combinations were prepared in sterile tubes as follows: • AMX 50% PIC+cineole 40% PIC • AMX 50% PIC+cineole 30% PIC • AMX 50% PIC+cineole 20% PIC • AMX 25% PIC+cineole 40% PIC • AMX 25% PIC+cineole 30% PIC • AMX 25% PIC+cineole 20% PIC.
(§9) The fractional inhibitory concentration index (FIC-index) expressing the degree of synergism of the AMX-cineole combination was calculated according to the following formula (Odds F. C. et al., J. Antimicrob. Chemoth. [Book], 2003, 52: page 1).
(§10) The AMX-cineole combination is considered: • Synergistic when the FIC-index is ≤0.5 • Additive when 0.5<FIC-index <1 • Indifferent when 1<FIC-index <2 • Antagonistic when FIC-index >2. Results

[2] = tested on: BSBL Escherichia coli P956
Protocol: as §1, §2, §3, §4, §5, §6, §7, §8, §9, §10

[3] = tested on: BSBL Escherichia coli P933
Protocol: as §1, §2, §3, §4, §5, §6, §7, §8, §9, §10

[4] = tested on: BSBL Escherichia coli P7847
Protocol: as §1, §2, §3, §4, §5, §6, §7, §8, §9, §10

[5] = tested on: BSBL Klebsiella pneumoniae H1878
Protocol: as §1, §2, §3, §4, §5, §6, §7, §8, §9, §10

[6] = tested on: BSBL Klebsiella pneumoniae H2001
Protocol: as §1, §2, §3, §4, §5, §6, §7, §8, §9, §10

[7] = cineole alone, Klebsiella pneumoniae H1893
[8] = cineole alone, Escherichia coli P956
[9] = cineole alone, Escherichia coli P933
[10] = cineole alone, Escherichia coli P7847
[11] = cineole alone, Klebsiella pneumoniae H1878
[12] = cineole alone, Klebsiella pneumoniae H2001

Structure (SMILES): CC1(C)S[C@@H]2[C@H](NC(=O)[C@H](N)c3ccc(O)cc3)C(=O)N2[C@H]1C(=O)O [amoxicillin, Amoxicillin]
- MIC ([1]; Klebsiella pneumoniae, K. pneumoniae 111893, read-out: 100% MIC Alone (amoxicillin, first figure of the cell)): 50 µg/mL
- 25% PIC ([1]; amoxicillin alone, Klebsiella pneumoniae H1893): 0.8 ± 0.12 µg/mL
- IC50 ([1]; amoxicillin alone, Klebsiella pneumoniae H1893, read-out: 50% PIC): 1.7 ± 0.09 µg/mL
- MIC ([2]; Escherichia coli, E. coli P956, read-out: 100% MIC Alone (amoxicillin, first figure of the cell)): 50 µg/mL
- 25% PIC ([2]; amoxicillin alone, Escherichia coli P956): 0.7 ± 0.14 µg/mL
- IC50 ([2]; amoxicillin alone, Escherichia coli P956, read-out: 50% PIC): 1.1 ± 0.25 µg/mL
- MIC ([3]; Escherichia coli, E. coli P933, read-out: 100% MIC Alone (amoxicillin, first figure of the cell)): 50 µg/mL
- 25% PIC ([3]; amoxicillin alone, Escherichia coli P933): 0.5 ± 0.10 µg/mL
- IC50 ([3]; amoxicillin alone, Escherichia coli P933, read-out: 50% PIC): 1.3 ± 0.24 µg/mL
- MIC ([4]; Escherichia coli, E. coli P7847, read-out: 100% MIC Alone (amoxicillin, first figure of the cell)): 50 µg/mL
- 25% PIC ([4]; amoxicillin alone, Escherichia coli P7847): 0.8 ± 0.17 µg/mL
- IC50 ([4]; amoxicillin alone, Escherichia coli P7847, read-out: 50% PIC): 1.5 ± 0.13 µg/mL
- MIC ([5]; Klebsiella pneumoniae, K. pneumoniae 111878, read-out: 100% MIC Alone (amoxicillin, first figure of the cell)): 50 µg/mL
- 25% PIC ([5]; amoxicillin alone, Klebsiella pneumoniae H1878): 0.9 ± 0.09 µg/mL
- IC50 ([5]; amoxicillin alone, Klebsiella pneumoniae H1878, read-out: 50% PIC): 1.6 ± 0.17 µg/mL
- MIC ([6]; Klebsiella pneumoniae, K. pneumoniae 112001, read-out: 100% MIC Alone (amoxicillin, first figure of the cell)): 50 µg/mL
- 25% PIC ([6]; amoxicillin alone, Klebsiella pneumoniae H2001): 0.6 ± 0.14 µg/mL
- IC50 ([6]; amoxicillin alone, Klebsiella pneumoniae H2001, read-out: 50% PIC): 1.3 ± 0.12 µg/mL

Structure (SMILES): CC12CCC(CC1)C(C)(C)O2 [cineole, 1,8-cineole]
- 100% MIC Alone (cineole, second figure of the cell) ([1]; K. pneumoniae 111893): 100 μl/ml
- 20% PIC [1, 7]: 0.6 ± 0.12 μl/ml
- 30% PIC [1, 7]: 2.7 ± 0.09 μl/ml
- 40% PIC [1, 7]: 6.8 ± 0.09 μl/ml
- 100% MIC Alone (cineole, second figure of the cell) ([2]; E. coli P956): 100 μl/ml
- 20% PIC [2, 8]: 1.2 ± 0.16 μl/ml
- 30% PIC [2, 8]: 2.6 ± 0.12 μl/ml
- 40% PIC [2, 8]: 6.2 ± 0.20 μl/ml
- 100% MIC Alone (cineole, second figure of the cell) ([3]; E. coli P933): 100 μl/ml
- 20% PIC [3, 9]: 1.3 ± 0.24 μl/ml
- 30% PIC [3, 9]: 2.3 ± 0.09 μl/ml
- 40% PIC [3, 9]: 6.8 ± 0.14 μl/ml
- 100% MIC Alone (cineole, second figure of the cell) ([4]; E. coli P7847): 100 μl/ml
- 20% PIC [4, 10]: 1.2 ± 0.11 μl/ml
- 30% PIC [4, 10]: 2.7 ± 0.12 μl/ml
- 40% PIC [4, 10]: 6.5 ± 0.10 μl/ml
- 100% MIC Alone (cineole, second figure of the cell) ([5]; K. pneumoniae 111878): 100 μl/ml
- 20% PIC [5, 11]: 0.4 ± 0.12 μl/ml
- 30% PIC [5, 11]: 2.9 ± 0.12 μl/ml
- 40% PIC [5, 11]: 7.1 ± 0.12 μl/ml
- 100% MIC Alone (cineole, second figure of the cell) ([6]; K. pneumoniae 112001): 100 μl/ml
- 20% PIC [6, 12]: 0.7 ± 0.09 μl/ml
- 30% PIC [6, 12]: 3.1 ± 0.10 μl/ml
- 40% PIC [6, 12]: 6.9 ± 0.12 μl/ml
